From PubChem BioAssay AID330 (DTP/NCI, 2004)
Several values for one entry are separate records, joined by “and”; a condition that tells them apart may be missing. Equal entries are not always repeated. Toxic doses and inconclusive results are not listed.

Tested on: P388 leukemia ip, CD2F1 mice, survival T/C
Assay: NCI In Vivo Anticancer Drug Screen. Data for tumor model P388 Leukemia (intraperitoneal) in CD2F1 (CDF1) mice
Settings: endpoint: median survival time, higher = longer survival
How it was run: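 Mice carrying the transplanted tumor received test compound or vehicle. Survival was recorded in each group, and the value is the treated-group measurement divided by that of the vehicle-treated control group.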

[1] = dose: 50.0 mg/kg/injection, schedule: Q01DX009 (ip), vehicle: saline with Tween-80
[2] = dose: 100.0 mg/kg/injection, schedule: Q01DX009 (ip), vehicle: saline with Tween-80
[3] = dose: 50.0 mg/kg/injection, schedule: Q01DX009 (ip), vehicle: Klucel (hydroxypropylcellulose) (HPC)
[4] = dose: 200.0 mg/kg/injection, schedule: Q01DX009 (ip), vehicle: saline with Tween-80
[5] = dose: 25.0 mg/kg/injection, schedule: Q04DX002 (ip), vehicle: saline with Tween-80
[6] = dose: 50.0 mg/kg/injection, schedule: Q04DX002 (ip), vehicle: saline with Tween-80
[7] = dose: 100.0 mg/kg/injection, schedule: Q04DX002 (ip), vehicle: saline with Tween-80
[8] = dose: 60.0 mg/kg/injection, schedule: Q01DX005 (ip), vehicle: saline with Tween-80
[9] = dose: 120.0 mg/kg/injection, schedule: Q01DX005 (ip), vehicle: saline with Tween-80

## COc1cc2c(c(OC)c1OC)-c1ccc(OC)c(=O)cc1[C@@H](NC(=O)c1ccccc1)CC2
dose: 0.5 mg/kg/injection, schedule: Q01DX009 (ip), vehicle: Klucel (hydroxypropylcellulose) (HPC)
  T/C: 156 % of control
dose: 0.5 mg/kg/injection, schedule: Q01DX009 (ip), vehicle: saline with Tween-80
  T/C: 121 % of control
dose: 0.63 mg/kg/injection, schedule: Q01DX009 (ip), vehicle: distilled water + Tween-80
  T/C: 154 % of control
dose: 1.0 mg/kg/injection, schedule: Q01DX009 (ip), vehicle: Klucel (hydroxypropylcellulose) (HPC)
  T/C: 182 % of control
dose: 1.25 mg/kg/injection, schedule: Q01DX009 (ip), vehicle: distilled water + Tween-80
  T/C: 218 % of control
dose: 2.0 mg/kg/injection, schedule: Q01DX009 (ip), vehicle: saline with Tween-80
  T/C: 165 % of control
dose: 2.5 mg/kg/injection, schedule: Q01DX009 (ip), vehicle: distilled water + Tween-80
  T/C: 261 % of control
dose: 4.0 mg/kg/injection, schedule: Q01DX009 (ip), vehicle: saline with Tween-80
  T/C: 86 % of control
dose: 5.0 mg/kg/injection, schedule: Q04DX003 (ip), vehicle: saline sonified
  T/C: 109 % of control
dose: 5.0 mg/kg/injection, schedule: Q04DX003 (ip), vehicle: saline with Tween-80
  T/C: 186 % of control
dose: 7.5 mg/kg/injection, schedule: Q04DX003 (ip), vehicle: saline sonified
  T/C: 154 % of control

## C1CNCCSCCCSCCNC1
dose: 25.0 mg/kg/injection, schedule: Q01DX009 (ip), vehicle: saline
  T/C: 100 % of control
dose: 50.0 mg/kg/injection, schedule: Q01DX009 (ip), vehicle: saline
  T/C: 98 % of control
dose: 100.0 mg/kg/injection, schedule: Q01DX009 (ip), vehicle: saline
  T/C: 89 % of control
dose: 200.0 mg/kg/injection, schedule: Q01DX009 (ip), vehicle: saline
  T/C: 87 % of control

## CC(=NC(C)C)Nc1ccccc1
[1]
  T/C: 104 % of control
[2]
  T/C: 105 % of control

## SC1(S)CN2CCC1CC2
dose: 6.25 mg/kg/injection, schedule: Q01DX009 (ip), vehicle: saline
  T/C: 104 % of control
dose: 12.5 mg/kg/injection, schedule: Q01DX009 (ip), vehicle: saline
  T/C: 100 % of control

## CCCCCCCCCCCCCCCCCOC(=O)CCCCCCCCCCCCC
dose: 100.0 mg/kg/injection, schedule: Q01DX001 (ip), vehicle: other
  T/C: 100 % of control
dose: 200.0 mg/kg/injection, schedule: Q01DX001 (ip), vehicle: other
  T/C: 95 % of control
dose: 400.0 mg/kg/injection, schedule: Q01DX001 (ip), vehicle: other
  T/C: 90 % of control

## Cc1cc2cc(C3CCNCC3)oc2cc1C
dose: 12.5 mg/kg/injection, schedule: Q01DX009 (ip), vehicle: Klucel (hydroxypropylcellulose) (HPC)
  T/C: 100 % of control
dose: 25.0 mg/kg/injection, schedule: Q01DX009 (ip), vehicle: Klucel (hydroxypropylcellulose) (HPC)
  T/C: 100 % of control and 109 % of control
[3]
  T/C: 107 % of control and 109 % of control and 119 % of control

## CCc1c(O)c2c([nH]c1=O)SC(C)(C)CC2=NCC(C)C
dose: 50.0 mg/kg/injection, schedule: Q01DX005 (ip), vehicle: saline
  T/C: 93 % of control
dose: 100.0 mg/kg/injection, schedule: Q01DX005 (ip), vehicle: saline
  T/C: 96 % of control
dose: 200.0 mg/kg/injection, schedule: Q01DX005 (ip), vehicle: saline
  T/C: 94 % of control

## CC1C=CC(C)c2c(-c3ccccc3)oc(-c3ccccc3)c21 (stereo not given)
[2]
  T/C: 95 % of control
[4]
  T/C: 104 % of control
dose: 400.0 mg/kg/injection, schedule: Q01DX009 (ip), vehicle: saline with Tween-80
  T/C: 108 % of control

## CP1(=S)CCC2=C1CCc1cc(O)ccc12 (stereo not given)
[3]
  T/C: 104 % of control
dose: 100.0 mg/kg/injection, schedule: Q01DX009 (ip), vehicle: Klucel (hydroxypropylcellulose) (HPC)
  T/C: 104 % of control
dose: 200.0 mg/kg/injection, schedule: Q01DX009 (ip), vehicle: Klucel (hydroxypropylcellulose) (HPC)
  T/C: 101 % of control

## COC(=O)C1=CO[C@@H](OC2OC(CO)C(O)C(O)C2O)[C@H]2[C@@H](C)[C@@H](O)[C@@H](O)[C@@H]12 (stereo not given in full)
dose: 5.25 mg/kg/injection, schedule: Q01DX005 (ip), vehicle: Klucel (hydroxypropylcellulose) (HPC)
  T/C: 100 % of control
dose: 10.5 mg/kg/injection, schedule: Q01DX005 (ip), vehicle: Klucel (hydroxypropylcellulose) (HPC)
  T/C: 95 % of control
dose: 21.0 mg/kg/injection, schedule: Q01DX005 (ip), vehicle: Klucel (hydroxypropylcellulose) (HPC)
  T/C: 104 % of control
dose: 42.0 mg/kg/injection, schedule: Q01DX005 (ip), vehicle: Klucel (hydroxypropylcellulose) (HPC)
  T/C: 99 % of control

## COc1cc([N+](=O)[O-])c(OC)cc1C(C)=O
dose: 50.0 mg/kg/injection, schedule: Q01DX005 (ip), vehicle: Klucel (hydroxypropylcellulose) (HPC)
  T/C: 96 % of control
dose: 100.0 mg/kg/injection, schedule: Q01DX005 (ip), vehicle: Klucel (hydroxypropylcellulose) (HPC)
  T/C: 93 % of control
dose: 200.0 mg/kg/injection, schedule: Q01DX005 (ip), vehicle: Klucel (hydroxypropylcellulose) (HPC)
  T/C: 100 % of control

## COc1c2occc2c(NC(=O)CI)c2ccc(=O)oc12
[5]
  T/C: 102 % of control
[6]
  T/C: 101 % of control
[7]
  T/C: 101 % of control

## CC(C)(C)N=C(CCC(C#N)(C#N)CCC(=NC(C)(C)C)Nc1c(Cl)cccc1Cl)Nc1c(Cl)cccc1Cl
[1]
  T/C: 99 % of control
[2]
  T/C: 92 % of control
[4]
  T/C: 92 % of control

## Brc1ncc2[nH]cnc2n1
dose: 50.0 mg/kg/injection, schedule: Q01DX005 (ip), vehicle: saline with Tween-80
  T/C: 99 % of control
dose: 100.0 mg/kg/injection, schedule: Q01DX005 (ip), vehicle: saline with Tween-80
  T/C: 100 % of control

## COC(=O)/C(C#N)=C(/SC)N(C)C
dose: 12.5 mg/kg/injection, schedule: Q01DX009 (ip), vehicle: saline with Tween-80
  T/C: 104 % of control
dose: 25.0 mg/kg/injection, schedule: Q01DX009 (ip), vehicle: saline with Tween-80
  T/C: 104 % of control
[1]
  T/C: 102 % of control and 109 % of control
[2]
  T/C: 103 % of control

## CCOc1nc(C(=O)O)cc2sccc12
dose: 100.0 mg/kg/injection, schedule: Q01DX001 (ip), vehicle: Klucel (hydroxypropylcellulose) (HPC)
  T/C: 90 % of control
dose: 200.0 mg/kg/injection, schedule: Q01DX001 (ip), vehicle: Klucel (hydroxypropylcellulose) (HPC)
  T/C: 93 % of control
dose: 400.0 mg/kg/injection, schedule: Q01DX001 (ip), vehicle: Klucel (hydroxypropylcellulose) (HPC)
  T/C: 88 % of control

## O=C1C(=Cc2cccnc2)C(=O)c2ccccc21
[8]
  T/C: 106 % of control
[9]
  T/C: 111 % of control

## CCCCC(O)CNc1ccccc1 (stereo not given)
[8]
  T/C: 105 % of control
[9]
  T/C: 99 % of control
dose: 240.0 mg/kg/injection, schedule: Q01DX005 (ip), vehicle: saline with Tween-80
  T/C: 90 % of control

## CN(/N=C(C#N)/C(N)=N/NC(=O)c1ccccc1)c1ccccc1
[5]
  T/C: 103 % of control
[6]
  T/C: 96 % of control
[7]
  T/C: 96 % of control

## O=C1CC2(CCCCC2)CC(=O)N1c1ccc(O)c(CN(Cc2ccccc2)Cc2ccccc2)c1
dose: 100.0 mg/kg/injection, schedule: Q04DX003 (ip), vehicle: Klucel (hydroxypropylcellulose) (HPC)
  T/C: 90 % of control
dose: 200.0 mg/kg/injection, schedule: Q04DX003 (ip), vehicle: Klucel (hydroxypropylcellulose) (HPC)
  T/C: 92 % of control
dose: 400.0 mg/kg/injection, schedule: Q04DX003 (ip), vehicle: Klucel (hydroxypropylcellulose) (HPC)
  T/C: 93 % of control

## COC1=C(C)C(=O)C2=C(C1=O)[C@@H]1[C@@H]3Cc4c(OC(=O)CO)c(C)c(OC)c(O)c4[C@H](CNC(=O)C(C)=O)N3[C@@H](C#N)[C@H](C2)N1C
dose: 0.63 mg/kg/injection, schedule: Q01DX005 (ip), vehicle: Klucel (hydroxypropylcellulose) (HPC)
  T/C: 106 % of control
dose: 1.25 mg/kg/injection, schedule: Q01DX005 (ip), vehicle: Klucel (hydroxypropylcellulose) (HPC)
  T/C: 115 % of control
dose: 2.25 mg/kg/injection, schedule: Q01DX005 (ip), vehicle: Klucel (hydroxypropylcellulose) (HPC)
  T/C: 120 % of control
dose: 2.5 mg/kg/injection, schedule: Q01DX005 (ip), vehicle: Klucel (hydroxypropylcellulose) (HPC)
  T/C: 115 % of control
dose: 625.0 micrograms/kg/injection, schedule: Q01DX005 (ip), vehicle: Klucel (hydroxypropylcellulose) (HPC)
  T/C: 103 % of control
dose: 1250.0 micrograms/kg/injection, schedule: Q01DX005 (ip), vehicle: Klucel (hydroxypropylcellulose) (HPC)
  T/C: 110 % of control
dose: 2500.0 micrograms/kg/injection, schedule: Q01DX005 (ip), vehicle: Klucel (hydroxypropylcellulose) (HPC)
  T/C: 116 % of control
dose: 5000.0 micrograms/kg/injection, schedule: Q01DX005 (ip), vehicle: Klucel (hydroxypropylcellulose) (HPC)
  T/C: 118 % of control
